Source: ChEMBL document CHEMBL1909046, “DrugMatrix in vitro pharmacology data”

Key:
[1] = target: T1, Alpha-1B adrenergic receptor (Rattus norvegicus, UniProt P15823); assay: DRUGMATRIX: Alpha-1B adrenergic receptor radioligand binding (ligand: prazosin); assay type: cell membranes, Wistar, Liver, Membrane; details: Not Active = under 50% inhibition at 10 µM
T1 sequence (P15823 whole entry): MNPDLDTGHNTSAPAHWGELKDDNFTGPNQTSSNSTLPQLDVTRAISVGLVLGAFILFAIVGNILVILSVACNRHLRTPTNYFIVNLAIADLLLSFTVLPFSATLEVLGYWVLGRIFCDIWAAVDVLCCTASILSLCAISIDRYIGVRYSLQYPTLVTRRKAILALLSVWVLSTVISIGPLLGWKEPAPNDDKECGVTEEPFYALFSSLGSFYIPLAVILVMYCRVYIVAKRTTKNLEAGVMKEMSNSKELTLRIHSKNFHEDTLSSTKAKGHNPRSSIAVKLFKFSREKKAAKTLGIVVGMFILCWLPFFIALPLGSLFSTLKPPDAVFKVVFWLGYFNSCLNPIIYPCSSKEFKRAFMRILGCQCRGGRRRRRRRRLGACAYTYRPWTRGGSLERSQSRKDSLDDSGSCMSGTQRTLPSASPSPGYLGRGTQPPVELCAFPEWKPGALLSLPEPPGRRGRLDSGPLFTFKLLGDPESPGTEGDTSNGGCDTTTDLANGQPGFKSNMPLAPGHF

[2] = target: T2, Alpha-2A adrenergic receptor (Homo sapiens, UniProt P08913); assay type: cell membranes, Sf9, Membrane; details: sf9; further: in other assays of this panel Not Active means under 50% inhibition at 10 µM
T2 sequence (P08913 whole entry): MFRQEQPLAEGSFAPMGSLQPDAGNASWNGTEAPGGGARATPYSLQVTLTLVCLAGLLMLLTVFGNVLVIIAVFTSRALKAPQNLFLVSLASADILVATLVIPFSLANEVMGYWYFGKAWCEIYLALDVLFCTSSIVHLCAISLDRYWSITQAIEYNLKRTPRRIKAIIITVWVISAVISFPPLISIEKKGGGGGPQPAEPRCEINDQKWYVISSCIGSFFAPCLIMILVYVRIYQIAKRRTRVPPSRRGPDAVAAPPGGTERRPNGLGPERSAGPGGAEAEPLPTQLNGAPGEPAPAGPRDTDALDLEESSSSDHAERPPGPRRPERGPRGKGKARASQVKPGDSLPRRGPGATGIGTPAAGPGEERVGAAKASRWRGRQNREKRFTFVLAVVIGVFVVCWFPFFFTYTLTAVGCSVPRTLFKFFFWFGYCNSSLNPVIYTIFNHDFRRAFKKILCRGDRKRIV

D(1A) dopamine receptor = D(1A) dopamine receptor (Homo sapiens, UniProt P21728); assay: DRUGMATRIX: Dopamine D1 radioligand binding (ligand: [3H] SCH-23390); assay type: cell membranes, CHO, Membrane; details: cho; Not Active = under 50% inhibition at 10 µM
Glycine receptor = Glycine receptor (Rattus norvegicus, UniProt P22771+P24524+P07727+P20781); assay type: cell membranes, Wistar, Spinal cord, Membrane; further: in other assays of this panel Not Active means under 50% inhibition at 10 µM
[3] = target: T3, 3-hydroxy-3-methylglutaryl-coenzyme A reductase (Homo sapiens, UniProt P04035); design: species or system Escherichia coli;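 further: enzyme inhibition assay of HMG-CoA reductase using radiolabeled [14C]HMG-CoA as substrate; in other assays of this panel Not Active means under 50% inhibition at 10 µM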
T3 sequence (P04035 whole entry): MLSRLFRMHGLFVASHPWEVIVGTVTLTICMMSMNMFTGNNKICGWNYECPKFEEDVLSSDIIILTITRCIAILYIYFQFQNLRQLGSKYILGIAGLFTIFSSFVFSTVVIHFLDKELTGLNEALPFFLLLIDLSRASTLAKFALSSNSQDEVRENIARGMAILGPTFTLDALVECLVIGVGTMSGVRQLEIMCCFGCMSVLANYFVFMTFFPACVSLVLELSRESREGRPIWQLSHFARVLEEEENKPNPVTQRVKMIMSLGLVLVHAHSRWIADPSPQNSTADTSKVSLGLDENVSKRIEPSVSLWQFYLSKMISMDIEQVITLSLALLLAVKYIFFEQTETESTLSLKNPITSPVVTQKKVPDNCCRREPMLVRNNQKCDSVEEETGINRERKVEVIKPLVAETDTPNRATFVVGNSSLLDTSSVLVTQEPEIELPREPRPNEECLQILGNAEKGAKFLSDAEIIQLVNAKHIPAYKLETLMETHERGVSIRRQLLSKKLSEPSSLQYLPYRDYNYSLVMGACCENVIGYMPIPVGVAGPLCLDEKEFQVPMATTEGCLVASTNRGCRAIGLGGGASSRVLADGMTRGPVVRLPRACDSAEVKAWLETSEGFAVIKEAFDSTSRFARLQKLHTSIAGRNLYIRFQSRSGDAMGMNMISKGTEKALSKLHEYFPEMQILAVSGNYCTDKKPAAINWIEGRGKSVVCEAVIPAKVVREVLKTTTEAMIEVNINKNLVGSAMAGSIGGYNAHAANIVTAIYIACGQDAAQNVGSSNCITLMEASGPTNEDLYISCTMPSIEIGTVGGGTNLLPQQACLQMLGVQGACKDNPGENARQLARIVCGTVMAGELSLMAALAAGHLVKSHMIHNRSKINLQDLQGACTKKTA

[4] = target: cGMP-specific 3',5'-cyclic phosphodiesterase (Homo sapiens, UniProt O76074); assay: DRUGMATRIX: Phosphodiesterase PDE5 enzyme inhibition (substrate: [3H]cGMP + cGMP); assay type: tissue-based, Platelet; details: platelet; Not Active = under 50% inhibition at 10 µM
[5] = target: Protein kinase C alpha type (Homo sapiens, UniProt P17252); assay type: cell-based; details: sf9;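 further: inhibition of PKCalpha kinase activity measured in an enzyme assay with histone as the phosphorylation substrate; in other assays of this panel Not Active means under 50% inhibition at 10 µM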
Cytochrome P450 1A2 = target: T4, Cytochrome P450 1A2 (Homo sapiens, UniProt P05177); details: bti-tn-5b1-4; further: in other assays of this panel Not Active means under 50% inhibition at 10 µM
T4 sequence (P05177 whole entry): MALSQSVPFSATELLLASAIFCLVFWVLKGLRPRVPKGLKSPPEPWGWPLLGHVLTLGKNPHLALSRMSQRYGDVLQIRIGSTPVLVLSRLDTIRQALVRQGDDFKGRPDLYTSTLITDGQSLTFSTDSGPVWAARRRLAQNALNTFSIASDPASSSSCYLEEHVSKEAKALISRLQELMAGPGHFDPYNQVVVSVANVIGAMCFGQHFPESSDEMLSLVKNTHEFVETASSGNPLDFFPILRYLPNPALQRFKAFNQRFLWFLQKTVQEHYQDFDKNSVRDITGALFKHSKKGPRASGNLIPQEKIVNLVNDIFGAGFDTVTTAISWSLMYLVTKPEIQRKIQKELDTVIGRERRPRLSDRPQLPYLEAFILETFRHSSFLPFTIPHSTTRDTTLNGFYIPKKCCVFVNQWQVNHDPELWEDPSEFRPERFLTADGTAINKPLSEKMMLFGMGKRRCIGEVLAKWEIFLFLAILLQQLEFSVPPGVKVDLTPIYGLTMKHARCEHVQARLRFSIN

Cytochrome P450 2E1 = Cytochrome P450 2E1 (Homo sapiens, UniProt P05181); details: bti-tn-5b1-4; further: in other assays of this panel Not Active means under 50% inhibition at 10 µM
[6] = target: Voltage-gated inwardly rectifying potassium channel KCNH2 (Homo sapiens, UniProt Q12809); details: hek293; further: in other assays of this panel Not Active means under 50% inhibition at 10 µM
Chain of Voltage-gated inwardly rectifying potassium channel KCNH2 (Q12809 whole entry): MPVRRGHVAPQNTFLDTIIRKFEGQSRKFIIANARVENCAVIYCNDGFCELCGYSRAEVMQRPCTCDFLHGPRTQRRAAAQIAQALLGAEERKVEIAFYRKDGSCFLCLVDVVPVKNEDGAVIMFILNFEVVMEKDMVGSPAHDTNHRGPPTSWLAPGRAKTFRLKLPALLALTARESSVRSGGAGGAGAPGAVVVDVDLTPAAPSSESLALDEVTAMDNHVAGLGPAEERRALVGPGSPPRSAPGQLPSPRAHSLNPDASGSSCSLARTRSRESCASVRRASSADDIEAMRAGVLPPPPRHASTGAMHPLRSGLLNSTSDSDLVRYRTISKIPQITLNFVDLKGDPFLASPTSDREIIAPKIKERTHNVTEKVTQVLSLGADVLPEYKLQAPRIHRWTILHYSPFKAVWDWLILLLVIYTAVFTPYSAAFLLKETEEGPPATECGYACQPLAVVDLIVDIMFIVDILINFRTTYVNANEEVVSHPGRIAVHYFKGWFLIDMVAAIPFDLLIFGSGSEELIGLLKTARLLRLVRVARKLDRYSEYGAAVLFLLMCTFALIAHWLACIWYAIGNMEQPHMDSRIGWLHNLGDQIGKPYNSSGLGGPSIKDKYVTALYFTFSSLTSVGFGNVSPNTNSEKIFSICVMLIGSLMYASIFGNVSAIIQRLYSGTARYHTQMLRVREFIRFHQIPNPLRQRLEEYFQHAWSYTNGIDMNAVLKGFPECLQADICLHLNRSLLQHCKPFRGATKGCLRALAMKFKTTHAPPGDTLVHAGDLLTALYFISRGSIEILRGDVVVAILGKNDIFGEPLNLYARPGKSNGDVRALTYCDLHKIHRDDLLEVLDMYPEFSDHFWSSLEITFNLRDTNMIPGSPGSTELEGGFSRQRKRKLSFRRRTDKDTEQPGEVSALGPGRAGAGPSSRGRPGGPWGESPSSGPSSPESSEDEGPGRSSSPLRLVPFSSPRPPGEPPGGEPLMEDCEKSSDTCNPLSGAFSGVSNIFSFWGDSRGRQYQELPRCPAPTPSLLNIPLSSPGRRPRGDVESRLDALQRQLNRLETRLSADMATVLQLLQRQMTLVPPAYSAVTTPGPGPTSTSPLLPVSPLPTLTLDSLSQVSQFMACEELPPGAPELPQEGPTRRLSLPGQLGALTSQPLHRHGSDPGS

Chain of D(1A) dopamine receptor (P21728 whole entry): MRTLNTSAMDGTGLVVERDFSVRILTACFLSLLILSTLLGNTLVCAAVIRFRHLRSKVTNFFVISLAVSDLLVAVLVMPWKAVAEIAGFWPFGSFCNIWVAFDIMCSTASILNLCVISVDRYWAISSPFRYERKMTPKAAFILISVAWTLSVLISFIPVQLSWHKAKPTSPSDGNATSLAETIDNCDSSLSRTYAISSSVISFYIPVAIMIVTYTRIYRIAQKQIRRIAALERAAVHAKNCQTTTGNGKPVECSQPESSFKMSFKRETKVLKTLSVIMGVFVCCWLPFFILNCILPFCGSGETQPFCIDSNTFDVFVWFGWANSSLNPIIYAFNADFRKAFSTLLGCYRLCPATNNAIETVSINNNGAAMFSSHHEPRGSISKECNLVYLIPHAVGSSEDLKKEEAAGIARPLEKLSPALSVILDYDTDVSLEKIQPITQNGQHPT
Chain of Cytochrome P450 2E1 (P05181 whole entry): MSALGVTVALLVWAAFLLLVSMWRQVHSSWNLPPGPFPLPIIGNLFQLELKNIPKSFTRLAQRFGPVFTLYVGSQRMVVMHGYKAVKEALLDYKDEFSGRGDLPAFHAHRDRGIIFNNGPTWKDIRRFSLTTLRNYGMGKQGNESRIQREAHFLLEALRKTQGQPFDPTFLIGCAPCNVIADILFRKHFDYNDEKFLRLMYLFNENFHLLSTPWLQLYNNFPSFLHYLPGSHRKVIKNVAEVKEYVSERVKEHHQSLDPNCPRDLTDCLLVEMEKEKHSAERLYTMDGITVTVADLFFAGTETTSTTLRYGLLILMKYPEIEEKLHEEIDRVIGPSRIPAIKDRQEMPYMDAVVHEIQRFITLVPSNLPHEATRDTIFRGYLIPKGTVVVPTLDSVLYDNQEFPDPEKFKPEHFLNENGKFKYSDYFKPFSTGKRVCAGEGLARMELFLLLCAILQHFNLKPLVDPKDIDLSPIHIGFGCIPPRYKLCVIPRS

C=C1C(=O)O[C@@H]2C3O[C@]3(C)CC/C=C(\C)CC[C@@H]12 (stereo not given in full)
Not Active: IC50 [1] | IC50 [2] | IC50 (D(1A) dopamine receptor) | IC50 (Glycine receptor) | IC50 [3] | IC50 [4] | IC50 [5] | IC50 (Cytochrome P450 1A2) | Ki (Cytochrome P450 1A2) | IC50 (Cytochrome P450 2E1) | Ki (Cytochrome P450 2E1) | IC50 [6] | Ki [6]

CN1C(C(=O)Nc2ccccn2)=C(O)c2ccccc2S1(=O)=O [PIROXICAM]
Not Active: IC50 [1] | IC50 [2] | IC50 (D(1A) dopamine receptor) | IC50 (Glycine receptor) | IC50 [3] | IC50 [4] | IC50 [5] | IC50 (Cytochrome P450 1A2) | Ki (Cytochrome P450 1A2) | IC50 (Cytochrome P450 2E1) | Ki (Cytochrome P450 2E1) | IC50 [6] | Ki [6]

COc1c(N2CCNC(C)C2)c(F)cc2c(=O)c(C(=O)O)cn(C3CC3)c12 (stereo not given) [GATIFLOXACIN]
Not Active: IC50 [1] | IC50 [2] | IC50 (D(1A) dopamine receptor) | IC50 (Glycine receptor) | IC50 [3] | IC50 [4] | IC50 [5] | IC50 (Cytochrome P450 1A2) | Ki (Cytochrome P450 1A2) | IC50 (Cytochrome P450 2E1) | Ki (Cytochrome P450 2E1) | IC50 [6] | Ki [6]

CC(/C=C1\SC(=S)N(CC(=O)O)C1=O)=C\c1ccccc1
Not Active: IC50 [1] | IC50 [2] | IC50 (D(1A) dopamine receptor) | IC50 (Glycine receptor) | IC50 [3] | IC50 [4] | IC50 [5] | IC50 (Cytochrome P450 1A2) | Ki (Cytochrome P450 1A2) | IC50 (Cytochrome P450 2E1) | Ki (Cytochrome P450 2E1) | IC50 [6] | Ki [6]

OCc1ccccc1 [BENZYL ALCOHOL]
Not Active: IC50 [1] | IC50 [2] | IC50 (D(1A) dopamine receptor) | IC50 (Glycine receptor) | IC50 [3] | IC50 [4] | IC50 [5] | IC50 (Cytochrome P450 1A2) | Ki (Cytochrome P450 1A2) | IC50 (Cytochrome P450 2E1) | Ki (Cytochrome P450 2E1) | IC50 [6] | Ki [6]

CCCc1cc(=O)[nH]c(=S)[nH]1 [PROPYLTHIOURACIL]
Not Active: IC50 [1] | IC50 [2] | IC50 (D(1A) dopamine receptor) | IC50 (Glycine receptor) | IC50 [3] | IC50 [4] | IC50 [5] | IC50 (Cytochrome P450 1A2) | Ki (Cytochrome P450 1A2) | IC50 (Cytochrome P450 2E1) | Ki (Cytochrome P450 2E1) | IC50 [6] | Ki [6]

N#C[C@H](O[C@@H]1O[C@H](CO[C@@H]2O[C@H](CO)[C@@H](O)[C@H](O)[C@H]2O)[C@@H](O)[C@H](O)[C@H]1O)c1ccccc1 [AMYGDALIN]
Not Active: IC50 [1] | IC50 [2] | IC50 (D(1A) dopamine receptor) | IC50 (Glycine receptor) | IC50 [3] | IC50 [4] | IC50 [5] | IC50 (Cytochrome P450 1A2) | Ki (Cytochrome P450 1A2) | IC50 (Cytochrome P450 2E1) | Ki (Cytochrome P450 2E1) | IC50 [6] | Ki [6]

C=C1CC[C@H](O)C/C1=C/C=C1\CCC[C@]2(C)[C@@H]([C@H](C)/C=C/[C@H](C)C(C)C)CC[C@@H]12 [ERGOCALCIFEROL]
Not Active: IC50 [1] | IC50 [2] | IC50 (D(1A) dopamine receptor) | IC50 (Glycine receptor) | IC50 [3] | IC50 [4] | IC50 [5] | IC50 (Cytochrome P450 1A2) | Ki (Cytochrome P450 1A2) | IC50 (Cytochrome P450 2E1) | Ki (Cytochrome P450 2E1) | IC50 [6] | Ki [6]

CC=CC(=O)N(CC)c1ccccc1C
Not Active: IC50 [1] | IC50 [2] | IC50 (D(1A) dopamine receptor) | IC50 (Glycine receptor) | IC50 [3] | IC50 [4] | IC50 [5] | IC50 (Cytochrome P450 1A2) | Ki (Cytochrome P450 1A2) | IC50 (Cytochrome P450 2E1) | Ki (Cytochrome P450 2E1) | IC50 [6] | Ki [6]

CC[C@@]1(O)C(=O)OCc2c1cc1n(c2=O)Cc2cc3ccccc3nc2-1 [CAMPTOTHECIN]
Not Active: IC50 [1] | IC50 [2] | IC50 (D(1A) dopamine receptor) | IC50 (Glycine receptor) | IC50 [3] | IC50 [4] | IC50 [5] | IC50 (Cytochrome P450 1A2) | Ki (Cytochrome P450 1A2) | IC50 (Cytochrome P450 2E1) | Ki (Cytochrome P450 2E1) | IC50 [6] | Ki [6]
